32 compounds from patent publication US20240325409A1, “Fused Heterotetracyclic Antiviral Agents” (Enanta Pharmaceuticals, Inc., priority 2023, published 2024) can be followed below.

This experiment has as its system HBV. As to the kind of experiment: HBV infection of HepG2-NTCP cells, HBeAg AlphaLISA readout. In kind it is cell-based. Particulars: Hepatitis B virus, 192 h, 2000 GE/cell, HBeAg in supernatant at day 8 post infection, 50% reduction relative to DMSO controls, read-out: Cellular EC50. How it is done:
HepG2-NTCP A3 cells were maintained in DMEM media supplemented with GlutaMAX™, 10% fetal bovine serum, 1% penicillin/streptomycin, and 5 ug/mL puromycin at 37° C. in a humidified atmosphere with 5% CO2 in a collagen-coated tissue culture flask.
HepG2-NTCP cells were seeded in 384 well plate containing 16,000 cells/well two days prior to the infection. On the day of infection, compounds were 3-fold serially diluted in DMSO and pre-incubated with HepG2-NTCP cells for two hours before purified HBV addition. HBV infection was carried out at 2000 GE/cell with 4% PEG, and the final concentration of DMSO is 0.5%. On day one post infection, HBV-containing media was aspirated, cells were washed once with PBS and then maintained in 2.5% DMSO containing media for the remainder of the assay.
Supernatants from infected HepG2-NTCP cells were collected at day 8 post infection, and the amount of viral antigen HBeAg was measured by HBeAg AlphaLISA detection kit (PerkinElmer) following the manufacturer's recommended protocol. Irrespective of readout, compound concentrations that reduce viral product accumulation in supernatants by 50% relative to DMSO controls (EC50) are reported. EC50 ranges are as follows: A<0.1 µM; B 0.1-1 µM; C>1 µM.

`CCCC[C@@H]1CN(c2ccccc2)c2cc3c(cc2S(=O)(=O)N1C)-c1cc(C(=O)O)ccc1[C@@H](C(F)(F)F)O3` [Example 21b, (5S,10R)-10-butyl-11-methyl-8-phenyl-5-(trifluoromethyl)-8,9,10,11-tetrahydro-5H-benzo[3,4]chromeno[7,6-f][1,2,5]thiadiazepine-2-carboxylic acid 12,12-dioxide]: the EC50 lay in the range of 100 to 1000 nM. Then `CCCC[C@@H]1CN(c2ccccc2)c2cc3c(cc2S(=O)(=O)N1C)-c1cc(C(=O)O)sc1CO3` [Example 15, (R)-9-butyl-10-methyl-7-phenyl-7,8,9,10-tetrahydro-4H-thieno[2′,3′:3,4]chromeno[7,6-f][1,2,5]thiadiazepine-2-carboxylic acid 11,11-dioxide], with under 100 nM; and `CC(C)C[C@@H]1CN(C2CC3(CCC3)C2)c2cc3c(cc2S(=O)(=O)N1C)-c1cc(C(=O)O)c(F)c(F)c1CO3` [Example 38], with under 100 nM. Then `CN1[C@H](C2CCCCC2)CN(c2ccccc2)c2cc3c(cc2S1(=O)=O)-c1cc(C(=O)O)ccc1CN3c1ccccc1F` [Example 30], with over 1000 nM; and `COC(C)(C)CN1C[C@@H](CC(C)C)N(C)S(=O)(=O)c2cc3c(cc21)OCc1c-3cc(C(=O)O)c(F)c1F` [Example 40], with 100 to 1000 nM; and `CCCC[C@@H]1CN(c2ccccc2)c2cc3c(cc2S(=O)(=O)N1C)-c1cccc(C(=O)O)c1CO3` [Example 9], with over 1000 nM.

For `CCCC[C@@H]1CN(c2ccccc2)c2cc3c(cc2S(=O)(=O)N1C)-c1cc(C(=O)O)ccc1CO3` [Example 7, (R)-10-butyl-11-methyl-8-phenyl-8,9,10,11-tetrahydro-5H-benzo[3,4]chromeno[7,6-f][1,2,5]thiadiazepine-2-carboxylic acid 12,12-dioxide], the EC50 is under 100 nM. Take `CC(C)C[C@@H]1CN(c2ccccc2)c2cc3c(cc2S(=O)(=O)N1C)-c1cc(C(=O)O)ccc1CO3` [Example 4, (R)-10-isobutyl-11-methyl-8-phenyl-8,9,10,11-tetrahydro-5H-benzo[3,4]chromeno[7,6-f][1,2,5]thiadiazepine-2-carboxylic acid 12,12-dioxide]: the EC50 is under 100 nM. Consider `CN1[C@H](CC(C)(C)C)CN(c2ccccc2)c2cc3c(cc2S1(=O)=O)-c1cc(C(=O)O)ccc1CO3` [Example 5], for which the EC50 was under 100 nM. The figure for `CN1[C@H](C2CCCCC2)CNc2cc3c(cc2S1(=O)=O)-c1cc(C(=O)O)ccc1CN3c1ccccc1F` [Example 32] is 100 to 1000 nM; for `CN1[C@H](C2CC2)CN(c2ccccc2)c2cc3c(cc2S1(=O)=O)-c1cc(C(=O)O)ccc1CO3` [Example 2, (R)-10-cyclopropyl-11-methyl-8-phenyl-8,9,10,11-tetrahydro-5H-benzo[3,4]chromeno[7,6-f][1,2,5]thiadiazepine-2-carboxylic acid 12,12-dioxide] it is 100 to 1000 nM; for `CCCCC1CN(c2ccccc2)c2cc3c(cc2S(=O)(=O)N1C)-c1cc(C(=O)O)ccc1OC3` (centres unmarked) [Example 24, 10-butyl-11-methyl-8-phenyl-8,9,10,11-tetrahydro-6H-benzo[3,4]isochromeno[7,6-f][1,2,5]thiadiazepine-2-carboxylic acid 12,12-dioxide] it is 100 to 1000 nM.

Take `CCCC[C@@H]1CN(c2ccccc2)c2cc3c(cc2S(=O)(=O)N1C)-c1cc(C(=O)O)ccc1C(C)(C)O3` [Example 23, (R)-10-butyl-5,5,11-trimethyl-8-phenyl-8,9,10,11-tetrahydro-5H-benzo[3,4]chromeno[7,6-f][1,2,5]thiadiazepine-2-carboxylic acid 12,12-dioxide]: the EC50 lay within 100 to 1000 nM. In the case of `CCCN1C[C@@H](CC(C)C)N(C)S(=O)(=O)c2cc3c(cc21)OCc1c-3cc(C(=O)O)c(F)c1F` [Example 37], the EC50 is under 100 nM. The figure for `CN1[C@H](C2CCC2)CN(c2ccccc2)c2cc3c(cc2S1(=O)=O)-c1sc(C(=O)O)cc1CO3` [Example 36, (R)-9-cyclobutyl-10-methyl-7-phenyl-7,8,9,10-tetrahydro-4H-thieno[3′,2′:3,4]chromeno[7,6-f][1,2,5]thiadiazepine-2-carboxylic acid 11,11-dioxide] is under 100 nM; for `CCCC[C@@H]1CN(c2ccccc2)c2cc3oc4ccc(C(=O)O)cc4c3cc2S(=O)(=O)N1C` [Example 34, (R)-3-butyl-2-methyl-5-phenyl-2,3,4,5-tetrahydrobenzo[2,3]benzofuro[6,5-f][1,2,5]thiadiazepine-10-carboxylic acid 1,1-dioxide] it is 100 to 1000 nM; for `CN1[C@H](CC2CC2)CN(c2ccccc2)c2cc3c(cc2S1(=O)=O)-c1cc(C(=O)O)ccc1CO3` [Example 3] it is 100 to 1000 nM. The figure for `CC(C)C[C@@H]1CN(c2ccccc2)c2cc3c(cc2S(=O)(=O)N1C)-c1cc(C(=O)O)sc1CO3` [Example 18, (R)-9-isobutyl-10-methyl-7-phenyl-7,8,9,10-tetrahydro-4H-thieno[2′,3′:3,4]chromeno[7,6-f][1,2,5]thiadiazepine-2-carboxylic acid 11,11-dioxide] is under 100 nM. Then `CC(C)C[C@@H]1CN(C2CCC2)c2cc3c(cc2S(=O)(=O)N1C)-c1cc(C(=O)O)c(F)c(F)c1CO3` [Example 39], with 100 to 1000 nM. Turning to `CCCC[C@@H]1CN(c2ccccc2)c2cc3c(cc2S(=O)(=O)N1C)-c1cc(C(=O)O)ccc1[C@@H](C(C)(C)C)O3` [Example 22b, (5R,10R)-5-(tert-butyl)-10-butyl-11-methyl-8-phenyl-8,9,10,11-tetrahydro-5H-benzo[3,4]chromeno[7,6-f][1,2,5]thiadiazepine-2-carboxylic acid 12,12-dioxide], the EC50 is over 1000 nM. Then `CN1[C@H](C2CCCCC2)CN(c2ccccc2)c2cc3c(cc2S1(=O)=O)-c1cc(C(=O)O)sc1CO3` [Example 19], with under 100 nM; and `CN1[C@H](C2CCCCC2)CNc2cc3c(cc2S1(=O)=O)-c1cc(C(=O)O)ccc1CO3` [Example 25, (R)-10-cyclohexyl-11-methyl-8,9,10,11-tetrahydro-5H-benzo[3,4]chromeno[7,6-f][1,2,5]thiadiazepine-2-carboxylic acid 12,12-dioxide], with over 1000 nM.

`CCCC[C@@H]1CN(c2ccccc2)c2cc3c(cc2S(=O)(=O)N1C)-c1cc(C(=O)O)ccc1C1(CC1)N3` [Example 33, (R)-10′-butyl-11′-methyl-8′-phenyl-8′,9′,10′,11′-tetrahydro-6′H-spiro[cyclopropane-1,5′-[1,2,5]thiadiazepino[7,6-b]phenanthridine]-2′-carboxylic acid 12′,12′-dioxide]: the EC50 was over 1000 nM. The figure for `CCCC[C@@H]1CN(c2ccccc2)c2cc3c(cc2S(=O)(=O)N1C)-c1cc(C(=O)O)ccc1CN3C` [Example 27, (R)-10-butyl-6,11-dimethyl-8-phenyl-5,6,8,9,10,11-hexahydro-[1,2,5]thiadiazepino[7,6-b]phenanthridine-2-carboxylic acid 12,12-dioxide] is under 100 nM; for `CC(C)C[C@@H]1CN(c2ccccc2)c2cc3c(cc2S(=O)(=O)N1C)-c1cc(C(=O)O)c(F)c(F)c1CO3` [Example 12, (R)-3,4-difluoro-10-isobutyl-11-methyl-8-phenyl-8,9,10,11-tetrahydro-5H-benzo[3,4]chromeno[7,6-f][1,2,5]thiadiazepine-2-carboxylic acid 12,12-dioxide] it is under 100 nM; for `CN1Cc2ccc(C(=O)O)cc2-c2cc3c(cc21)NC[C@@H](C1CCCCC1)N(C)S3(=O)=O` [Example 31, (R)-10-cyclohexyl-6,11-dimethyl-5,6,8,9,10,11-hexahydro-[1,2,5]thiadiazepino[7,6-b]phenanthridine-2-carboxylic acid 12,12-dioxide] it is over 1000 nM. Then `CCCC[C@@H]1CN(c2ccccc2)c2cc3c(cc2S(=O)(=O)N1C)-c1cc(C(=O)O)c(F)c(F)c1CO3` [Example 17], with under 100 nM. `CCCC[C@@H]1CN(c2ccccc2)c2cc3c(cc2S(=O)(=O)N1C)-c1cc(C(=O)O)ccc1[C@H](C(C)(C)C)O3` [Example 22a, (5S,10R)-5-(tert-butyl)-10-butyl-11-methyl-8-phenyl-8,9,10,11-tetrahydro-5H-benzo[3,4]chromeno[7,6-f][1,2,5]thiadiazepine-2-carboxylic acid 12,12-dioxide]: the EC50 was over 1000 nM.

Regarding `CCCC[C@@H]1CN(c2ccccc2)c2cc3c(cc2S(=O)(=O)N1C)-c1cc(C(=O)O)ccc1CN3C(C)C` [Example 28], the EC50 lay within 100 to 1000 nM. For the compound `CCCC[C@@H]1CN(c2ccccc2)c2cc3c(cc2S(=O)(=O)N1C)-c1cc(C(=O)O)ccc1OCCO3` [Example 35, (R)-12-butyl-13-methyl-10-phenyl-6,7,10,11,12,13-hexahydrobenzo[7′,8′][1,4]dioxocino[6′,5′:4,5]benzo[1,2-f][1,2,5]thiadiazepine-2-carboxylic acid 14,14-dioxide], the EC50 fell in the range of 100 to 1000 nM. The figure for `CCCC[C@@H]1CN(c2ccccc2)c2cc3c(cc2S(=O)(=O)N1C)-c1cc(C(=O)O)ccc1CN3` [Example 29] is 100 to 1000 nM; for `CCCC[C@@H]1CN(c2ccccc2)c2cc3c(cc2S(=O)(=O)N1C)-c1nc(C(=O)O)ccc1CO3` [Example 11, (R)-10-butyl-11-methyl-8-phenyl-8,9,10,11-tetrahydro-5H-pyrido[3′,2′:3,4]chromeno[7,6-f][1,2,5]thiadiazepine-2-carboxylic acid 12,12-dioxide] it is over 1000 nM.

Usually EC50 stands for the concentration that produces a half-maximal response.
